Measurements from US10945978B2, “Treatment and diagnosis of melanoma” (The Rockefeller University, priority 2012, dated 2021).
Structures can show the parent of a compound that is named as a salt.

Columns and labels:
[1] = tested on: MeWo human melanoma cells; experiment: Subcutaneous MeWo tumor growth in immunocompromised mice; assay type: in vivo; details: oral, GW3965-supplemented diet
Method: Animals were palpated weekly for tumor formation, after which sizeable tumors were measured twice a week. Tumor volume was calculated as (small diameter)^2×(large diameter)/2.

ApoE = ApoE expression by qRT-PCR in human melanoma cells; assay type: cell-based; details: parental MeWo cells; GW3965 48 hours
Method: Total RNA was extracted from various cell lines using the miRvana kit (AM1560, Applied Biosystems, Austin, Tex.). The expression levels of mature miRNAs were quantified using the Taqman miRNA expression assay (4427975-0002228, Applied Biosystems). RNU44 was used as an endogenous control for normalization. For mRNA expression analyses, 600 ng of total RNA was reverse transcribed using the cDNA First-Strand Synthesis Kit (18080-051, Invitrogen), and roughly 200 ng of the resulting cDNA was then mixed with SYBR green PCR Master Mix (4309155, Applied Biosystems) and the appropriate primers. Each reaction was performed in quadruplicate, and mRNA expression was quantified by performing real-time PCR amplification using an ABI Prism 7900HT Real-Time PCR System (Applied Biosystems). GAPDH was used as an endogenous control for normalization. The following primers were used: […]
RNA was extracted from whole cell lysates using the Total RNA Purification Kit (17200, Norgen, Thorold, Canada). 600 ng of total RNA was then reverse transcribed into cDNA using the cDNA First-Strand Synthesis Kit (18080-051, Invitrogen), and quantitative real-time PCR amplification was performed as previously described (Pencheva et al., 2012) using an ABI Prism 7900HT Real-Time PCR System (Applied Biosystems, Austin, Tex.). Each PCR reaction was carried out in quadruplicates. Gene expression was normalized to GAPDH, which was used as an endogenous control.
For every sample, 600 ng of RNA was reverse transcribed into cDNA using the cDNA First-Strand Synthesis kit (Invitrogen). Approximately 200 ng of cDNA was mixed with SYBR® green PCR Master Mix and the corresponding forward and reverse primers specific for detection of human ApoE. Each reaction was carried out in quadruplicates, and ApoE mRNA expression levels were measured by quantitative real-time PCR amplification using an ABI Prism 7900HT Real-Time PCR System (Applied Biosystems). The relative ApoE expression was determined using the ΔΔCt method. GAPDH was used as an endogenous control for normalization purposes.

[2] = tested on: SK-Mel-334.2 primary human melanoma line; experiment: Subcutaneous SK-Mel-334.2 tumor growth in immunocompromised mice; assay type: in vivo; details: oral, GW3965-supplemented diet
[3] = tested on: B16F10, MeWo and SK-Mel-334.2 cells; experiment: Overall survival of mice bearing subcutaneous melanoma tumors; assay type: in vivo, mouse; details: chow supplemented with GW3965 100 mg/kg after tumor establishment
[4] = tested on: MeWo brain-metastatic derivatives; experiment: Brain metastasis assay, intracardiac injection into athymic nude mice; assay type: in vivo, human; details: oral, GW3965 diet 100 mg/kg from day 0
Method: Melanoma cells used for in vivo metastasis assays were transduced with a stably expressed retroviral construct encoding a luciferase reporter gene (Ponomarev et al., 2004), allowing us to monitor the in vivo progression of melanoma cells by bioluminescence imaging. The following numbers of melanoma cells, resuspended in 100 μL of PBS, were injected intravenously via the tail-vein: 4×10^4 MeWo cells, 2.5×10^5 HT-144 cells, 2×10^5 SK-Mel-334.2 cells, 5×10^4B16F10 cells, and 1×10^5 YUMM cells. The MeWo, HT-144, and SK-Mel-334.2 cells were injected into 6-8 week-old sex-matched NOD scid mice, while the B16F10 and YUMM cells were injected into 6-8 week-old sex-matched C57BL/6 mice. In all experiments assessing at the effects of GW3965 on metastasis formation, mice were pre-treated on a control diet or a GW3965-supplemented diet (20 mg/kg) for 10 days. To assess the effect of GW3965 treatment on brain metastasis, 1×10^5 MeWo brain-metastatic derivatives were injected intracardially into athymic nude mice. Immediately following injection, mice were randomly assigned to a control diet or GW3965-supplemented diet (100 mg/kg). […]

[5] = tested on: MDA-468 human breast cancer cells; experiment: MDA-468 breast cancer tumor growth in Nod Scid gamma mice; assay type: in vivo; details: GW3965-supplemented diet 75 mg/kg/day
Method: The mice were assigned to a control diet treatment or a GW3965-supplemented diet treatment (75 mg/kg/day) two days prior to injection of the cancer cells.

[6] = tested on: Tyr::CreER; B-RafV600E/+; Ptenlox/+ and Tyr::CreER; B-RafV600E/+; Ptenlox/lox mice; experiment: Genetically-initiated model of melanoma progression; assay type: in vivo, mouse
Method: The Tyr::CreER; B-Raf^V600E/+; Pten^lox/+/Tyr::CreER; B—Raf^V600E/+; Pten^lox/lox conditional model of melanoma progression was previously established and characterized by Dankort et al. (2009). Briefly, melanoma in these mice was induced at 6 weeks of age by intraperitoneally injecting 4-HT (H6278, 70% isomer, Sigma-Aldrich, St Louis, Mo.) at 25 mg/kg administered in peanut oil on three consecutive days. The 4-HT stock solution was prepared by dissolving it in 100% EtOH at 50 mg/mL by heating at 45° C. for 5 min and mixing. Once dissolved, the stock 4-HT solution was then diluted by 10-fold in peanut oil, yielding a 5 mg/mL 4-HT working solution that was then injected into mice. After the first 4-HT injection, mice were blindedly assigned to receive either a control diet or a diet supplemented with GW3965 (100 mg/kg). Mice were examined three times a week for the presence and progression of melanoma lesions. At day 35, dorsal skin samples were harvested from control-treated and GW3965-treated mice, fixed in 4% PFA and photographed at 10×. The percentage of pigmented melanoma lesion area out of the total skin area was quantified using ImageJ. For survival analyses, mice were monitored daily for melanoma progression and euthanized according to a standard body condition score, taking into account initial signs of moribund state and discomfort associated with the progression of melanoma burden. Post-mortem, the lungs, brains, and salivary glands were harvested and examined for the presence of macroscopic melanoma lesions.

MeWo-LM2 cells = experiment: Lung metastatic colonization by MeWo-LM2 cells in NOD-SCID mice; assay type: in vivo, human; details: cells pre-incubated with recombinant ApoE 100 μg/mL for 24 hours before i.v. injection
Method: After 8 hours, the transfection media was replaced with fresh media. After 48 hours, 1×10^5 cells were injected intravenously into NOD-SCID mice to assess lung metastatic colonization or through intracardiac injection into athymic nude mice to assess systemic metastasis. For cell invasion and endothelial recruitment in vitro assays, the cells were used 96 hours post-transfection.

Compound	tumor growth inhibition [1]	expression of ApoE (ApoE)	tumor growth inhibition [2]	overall survival time [3]	systemic dissemination and brain colonization [4]	breast cancer tumor size [5]	number of lymphatic metastases detected post-mortem ([6]; Ptenlox/lox mice, GW3965 100 mg/kg)	tumor progression ([6]; oral, GW3965 diet 100 mg/kg after melanoma initiation)	overall survival times ([6]; oral, GW3965 diet 100 mg/kg, Ptenlox/+ and Ptenlox/lox)	suppression of metastatic colonization (MeWo-LM2 cells)
O=C(O)Cc1cccc(OCCCN(Cc2cccc(C(F)(F)F)c2Cl)CC(c2ccccc2)c2ccccc2)c1 [GW3965 2, 3-[3-[N-(2-Chloro-3-trifluoromethylbenzyl)-(2,2-diphenylethyl)amino]propyloxy] phenylacetic acid hydrochloride]	70%	increased	73%	substantially prolonged	inhibited	significant reduction	decrease	attenuated	significantly extended	–
recombinant human ApoE: recombinant human ApoE3 (4696, BioVision)	–	–	–	–	–	–	–	–	–	over 300 fold
